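The compound was tested at five concentrations on cells cultured in 96-well plates, with a 48-hour exposure period. GI50 is the concentration that inhibits growth by half. TGI is the concentration that stops growth completely.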
Columns and labels:
Experiment in all cases: inhibition of tumour cell growth, NCI panel, 48 h; in the data active means GI50 below about 0.43 µM; inactive means the rest
M14 melanoma = system: M14 melanoma
LOX IMVI melanoma = system: LOX IMVI melanoma
UO-31 renal = system: UO-31 renal
NCI-H522 lung = system: NCI-H522 lung
PC-3 prostate = system: PC-3 prostate
UACC-62 melanoma = system: UACC-62 melanoma
OVCAR-8 ovarian = system: OVCAR-8 ovarian
SK-MEL-5 melanoma = system: SK-MEL-5 melanoma
OVCAR-4 ovarian = system: OVCAR-4 ovarian
SK-MEL-28 melanoma = system: SK-MEL-28 melanoma
U251 CNS = system: U251 CNS
HCT-15 colon = system: HCT-15 colon
A549 NSCLC = system: A549 NSCLC
HCT-116 colon = system: HCT-116 colon
NCI-H460 lung = system: NCI-H460 lung
EKVX NSCLC = system: EKVX NSCLC
MDA-MB-231 breast = system: MDA-MB-231 breast
786-0 renal = system: 786-0 renal
SN12C renal = system: SN12C renal
HL-60(TB) leukemia = system: HL-60(TB) leukemia
BT-549 breast = system: BT-549 breast
NCI-H23 lung = system: NCI-H23 lung
SW-620 colon = system: SW-620 colon
NCI/ADR-RES ovarian = system: NCI/ADR-RES ovarian
HOP-92 NSCLC = system: HOP-92 NSCLC
KM12 colon = system: KM12 colon
TK-10 renal = system: TK-10 renal
UACC-257 melanoma = system: UACC-257 melanoma
SF-539 CNS = system: SF-539 CNS
A498 renal = system: A498 renal
SF-268 CNS = system: SF-268 CNS
CCRF-CEM leukemia = system: CCRF-CEM leukemia
T-47D breast = system: T-47D breast
MALME-3M melanoma = system: MALME-3M melanoma
OVCAR-3 ovarian = system: OVCAR-3 ovarian
RXF 393 renal = system: RXF 393 renal
CAKI-1 renal = system: CAKI-1 renal
HOP-62 NSCLC = system: HOP-62 NSCLC
HT29 colon = system: HT29 colon
DU-145 prostate = system: DU-145 prostate
HS 578T breast = system: HS 578T breast
RPMI-8226 leukemia = system: RPMI-8226 leukemia
SF-295 CNS = system: SF-295 CNS
OVCAR-5 ovarian = system: OVCAR-5 ovarian
COLO 205 colon = system: COLO 205 colon
MDA-MB-435 = system: MDA-MB-435
SK-MEL-2 melanoma = system: SK-MEL-2 melanoma
IGROV1 ovarian = system: IGROV1 ovarian
K-562 leukemia = system: K-562 leukemia
SNB-75 CNS = system: SNB-75 CNS
SR leukemia = system: SR leukemia
ACHN renal = system: ACHN renal
MOLT-4 leukemia = system: MOLT-4 leukemia
SNB-19 CNS = system: SNB-19 CNS
MCF7 breast = system: MCF7 breast
SK-OV-3 ovarian = system: SK-OV-3 ovarian

COc1ccc(C2C3=C(NC(=O)C2C#N)c2ccc4ccccc4c2OCC3)cc1 (configuration not stated)
70.3 µM: TGI (CAKI-1 renal)
43.2 µM: TGI (MDA-MB-231 breast)
54.2 µM: TGI (U251 CNS)
50.1 µM: TGI (EKVX NSCLC)
76.8 µM: TGI (TK-10 renal)
28 µM: TGI (SF-539 CNS)
56.5 µM: TGI (SN12C renal)
45.3 µM: TGI (OVCAR-8 ovarian)
> 100 µM: TGI (M14 melanoma) | TGI (UO-31 renal) | TGI (NCI-H522 lung) | TGI (PC-3 prostate) | TGI (SK-MEL-5 melanoma) | TGI (OVCAR-4 ovarian) | TGI (SK-MEL-28 melanoma) | TGI (HCT-15 colon) | TGI (A549 NSCLC) | TGI (HCT-116 colon) | TGI (NCI-H460 lung) | TGI (HL-60(TB) leukemia) | TGI (NCI-H23 lung) | TGI (SW-620 colon) | TGI (NCI/ADR-RES ovarian) | TGI (KM12 colon) | TGI (CCRF-CEM leukemia) | TGI (T-47D breast) | TGI (OVCAR-3 ovarian) | TGI (HT29 colon) | TGI (DU-145 prostate) | TGI (RPMI-8226 leukemia) | TGI (SF-295 CNS) | TGI (OVCAR-5 ovarian) | TGI (COLO 205 colon) | TGI (MDA-MB-435) | TGI (SK-MEL-2 melanoma) | TGI (IGROV1 ovarian) | TGI (K-562 leukemia) | TGI (SR leukemia) | TGI (MOLT-4 leukemia) | TGI (SNB-19 CNS) | TGI (MCF7 breast)
45.5 µM: TGI (UACC-62 melanoma)
inactive: GI50 (M14 melanoma) 90.2 µM | GI50 (LOX IMVI melanoma) 18.6 µM | GI50 (UO-31 renal) 64.1 µM | GI50 (NCI-H522 lung) 74.5 µM | GI50 (PC-3 prostate) 86.9 µM | GI50 (UACC-62 melanoma) 19 µM | GI50 (OVCAR-8 ovarian) 21.4 µM | GI50 (SK-MEL-5 melanoma) > 100 µM | GI50 (OVCAR-4 ovarian) > 100 µM | GI50 (SK-MEL-28 melanoma) 42.3 µM | GI50 (U251 CNS) 23.6 µM | GI50 (HCT-15 colon) > 100 µM | GI50 (A549 NSCLC) 38.9 µM | GI50 (HCT-116 colon) 35.8 µM | GI50 (NCI-H460 lung) 66.2 µM | GI50 (EKVX NSCLC) 15.8 µM | GI50 (MDA-MB-231 breast) 17.9 µM | GI50 (786-0 renal) 30.2 µM | GI50 (SN12C renal) 23.9 µM | GI50 (HL-60(TB) leukemia) 65.8 µM | GI50 (BT-549 breast) 20.4 µM | GI50 (NCI-H23 lung) 87.1 µM | GI50 (SW-620 colon) > 100 µM | GI50 (NCI/ADR-RES ovarian) 31.3 µM | GI50 (HOP-92 NSCLC) 11.4 µM | GI50 (KM12 colon) > 100 µM | GI50 (TK-10 renal) 29.5 µM | GI50 (UACC-257 melanoma) 36.5 µM | GI50 (SF-539 CNS) 12.9 µM | GI50 (A498 renal) 10.6 µM | GI50 (SF-268 CNS) 23.3 µM | GI50 (CCRF-CEM leukemia) > 100 µM | GI50 (T-47D breast) > 100 µM | GI50 (MALME-3M melanoma) 34.9 µM | GI50 (OVCAR-3 ovarian) 70.4 µM | GI50 (RXF 393 renal) 16.3 µM | GI50 (CAKI-1 renal) 33.8 µM | GI50 (HOP-62 NSCLC) 28.2 µM | GI50 (HT29 colon) > 100 µM | GI50 (DU-145 prostate) 31.4 µM | GI50 (HS 578T breast) 22.6 µM | GI50 (RPMI-8226 leukemia) > 100 µM | GI50 (SF-295 CNS) 27.4 µM | GI50 (OVCAR-5 ovarian) > 100 µM | GI50 (COLO 205 colon) > 100 µM | GI50 (MDA-MB-435) > 100 µM | GI50 (SK-MEL-2 melanoma) > 100 µM | GI50 (IGROV1 ovarian) > 100 µM | GI50 (K-562 leukemia) > 100 µM | GI50 (SNB-75 CNS) 21.9 µM | GI50 (SR leukemia) > 100 µM | GI50 (ACHN renal) 21.9 µM | GI50 (MOLT-4 leukemia) > 100 µM | GI50 (SNB-19 CNS) 58.8 µM | GI50 (MCF7 breast) > 100 µM | GI50 (SK-OV-3 ovarian) 20 µM
56.6 µM: TGI (HS 578T breast)
43.4 µM: TGI (HOP-92 NSCLC)
59.5 µM: TGI (ACHN renal)
69.1 µM: TGI (SNB-75 CNS)
48.9 µM: TGI (RXF 393 renal)
77.3 µM: TGI (MALME-3M melanoma)
86.3 µM: TGI (HOP-62 NSCLC)
76.2 µM: TGI (SF-268 CNS)
37.5 µM: TGI (LOX IMVI melanoma)
64.6 µM: TGI (A498 renal)
82.8 µM: TGI (UACC-257 melanoma)
60.6 µM: TGI (BT-549 breast)
47.1 µM: TGI (SK-OV-3 ovarian)
86.4 µM: TGI (786-0 renal)

— PubChem BioAssay (NCI)
